Reference: ChEMBL document CHEMBL1201862, “PubChem BioAssay data set” (2004)
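Where inhibition never reached the appropriate level, the endpoint shown equals the highest concentration tested. Otherwise, values were interpolated linearly from a five-concentration, 48-hour dose response in 96-well plates. GI50: concentration for 50% inhibition of growth.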 Activity calls are given as the source filed them. Rule as the data show it: active = GI50 up to about 1.1 µM and inactive = higher.

Columns and labels:
Assay in all cases: NCI tumour cell line growth inhibition, 48 h
MCF7 = system: MCF7
HOP-62 = system: HOP-62
NCI-H460 = system: NCI-H460
PC-3 = system: PC-3
SK-MEL-28 = system: SK-MEL-28
MOLT-4 = system: MOLT-4
EKVX = system: EKVX
786-0 = system: 786-0
COLO 205 = system: COLO 205
OVCAR-8 = system: OVCAR-8
HCC 2998 = system: HCC 2998
SNB-75 = system: SNB-75
TK-10 = system: TK-10
M14 = system: M14
IGROV-1 = system: IGROV-1
HCT-116 = system: HCT-116
SNB-19 = system: SNB-19
SK-MEL-2 = system: SK-MEL-2
ACHN = system: ACHN
LOX IMVI = system: LOX IMVI
RXF 393 = system: RXF 393
NCI/ADR-RES = system: NCI/ADR-RES
Hs-578T = system: Hs-578T
A498 = system: A498
SW-620 = system: SW-620
BT-549 = system: BT-549
T47D = system: T47D
CAKI-1 = system: CAKI-1
A549 = system: A549
SK-MEL-5 = system: SK-MEL-5
UACC-62 = system: UACC-62
SF-268 = system: SF-268
NCI-H226 = system: NCI-H226
HOP-92 = system: HOP-92
NCI-H23 = system: NCI-H23
OVCAR-3 = system: OVCAR-3
UACC-257 = system: UACC-257
SR = system: SR
SF-539 = system: SF-539
MDA-MB-435 = system: MDA-MB-435
HCT-15 = system: HCT-15
NCI-H522 = system: NCI-H522
OVCAR-4 = system: OVCAR-4
Malme-3M = system: Malme-3M
SF-295 = system: SF-295
HT-29 = system: HT-29
CCRF-CEM = system: CCRF-CEM
U-251 = system: U-251
RPMI-8226 = system: RPMI-8226
UO-31 = system: UO-31
HL-60 = system: HL-60
KM12 = system: KM12
OVCAR-5 = system: OVCAR-5
DU-145 = system: DU-145
K562 = system: K562
SK-OV-3 = system: SK-OV-3
MDA-MB-231 = system: MDA-MB-231
SN12C = system: SN12C

Compound: O=C(O)c1nc2ccccc2nc1Nc1ccc(F)cc1
- GI50 (MCF7): 29.9 µM (inactive)
- GI50 (HOP-62): 30.4 µM (inactive)
- GI50 (NCI-H460): 34 µM (inactive)
- GI50 (PC-3): 27.9 µM (inactive)
- GI50 (SK-MEL-28): 36.4 µM (inactive)
- GI50 (MOLT-4): 28.3 µM (inactive)
- GI50 (EKVX): 36.4 µM (inactive)
- GI50 (786-0): 40.9 µM (inactive)
- GI50 (COLO 205): 29.5 µM (inactive)
- GI50 (OVCAR-8): 38.9 µM (inactive)
- GI50 (HCC 2998): 32.1 µM (inactive)
- GI50 (SNB-75): 24.8 µM (inactive)
- GI50 (TK-10): 34.5 µM (inactive)
- GI50 (M14): 25.5 µM (inactive)
- GI50 (IGROV-1): 37.4 µM (inactive)
- GI50 (HCT-116): 30.8 µM (inactive)
- GI50 (SNB-19): 30.8 µM (inactive)
- GI50 (SK-MEL-2): 26.9 µM (inactive)
- GI50 (ACHN): 26.9 µM (inactive)
- GI50 (LOX IMVI): 34.1 µM (inactive)
- GI50 (RXF 393): 14.5 µM (inactive)
- GI50 (NCI/ADR-RES): 36.8 µM (inactive)
- GI50 (Hs-578T): 29.2 µM (inactive)
- GI50 (A498): 40 µM (inactive)
- GI50 (SW-620): 38.5 µM (inactive)
- GI50 (BT-549): 44.3 µM (inactive)
- GI50 (T47D): 28.4 µM (inactive)
- GI50 (CAKI-1): 20.9 µM (inactive)
- GI50 (A549): 33.4 µM (inactive)
- GI50 (SK-MEL-5): 21.6 µM (inactive)
- GI50 (UACC-62): 27.2 µM (inactive)
- GI50 (SF-268): 22.9 µM (inactive)
- GI50 (NCI-H226): 23.7 µM (inactive)
- GI50 (HOP-92): 27.1 µM (inactive)
- GI50 (NCI-H23): 34 µM (inactive)
- GI50 (OVCAR-3): 15.3 µM (inactive)
- GI50 (UACC-257): 29.6 µM (inactive)
- GI50 (SR): 32.7 µM (inactive)
- GI50 (SF-539): 23.5 µM (inactive)
- GI50 (MDA-MB-435): 34.8 µM (inactive)
- GI50 (HCT-15): 26.7 µM
- GI50 (NCI-H522): 25.1 µM (inactive)
- GI50 (OVCAR-4): 41.8 µM (inactive)
- GI50 (Malme-3M): 37.9 µM (inactive)
- GI50 (SF-295): 24 µM (inactive)
- GI50 (HT-29): 42.1 µM (inactive)
- GI50 (CCRF-CEM): 29.8 µM (inactive)
- GI50 (U-251): 37.7 µM (inactive)
- GI50 (RPMI-8226): 23.1 µM (inactive)
- GI50 (UO-31): 43 µM (inactive)
- GI50 (HL-60): 25.7 µM (inactive)
- GI50 (KM12): 41.6 µM (inactive)
- GI50 (OVCAR-5): 56.4 µM (inactive)
- GI50 (DU-145): 33.7 µM (inactive)
- GI50 (K562): 32.1 µM (inactive)

Compound: O=c1c(Cl)c(Cl)c(=O)c2sc3cc(Cl)ccc3[nH]c1=2
- GI50 (MCF7): 73.3 µM (inactive)
- GI50 (HOP-62): > 100 µM (inactive)
- GI50 (SK-OV-3): > 100 µM (inactive)
- GI50 (NCI-H460): > 100 µM (inactive)
- GI50 (PC-3): 32.6 µM (inactive)
- GI50 (SK-MEL-28): > 100 µM (inactive)
- GI50 (MOLT-4): 2.47 µM (inactive)
- GI50 (EKVX): 14 µM (inactive)
- GI50 (786-0): > 100 µM (inactive)
- GI50 (COLO 205): 90.4 µM (inactive)
- GI50 (OVCAR-8): 14.5 µM (inactive)
- GI50 (SNB-75): 47.4 µM (inactive)
- GI50 (TK-10): 65.6 µM (inactive)
- GI50 (M14): 40.5 µM (inactive)
- GI50 (IGROV-1): 10.5 µM (inactive)
- GI50 (HCT-116): 33 µM (inactive)
- GI50 (SNB-19): 78.9 µM (inactive)
- GI50 (SK-MEL-2): > 100 µM (inactive)
- GI50 (ACHN): 53.1 µM (inactive)
- GI50 (RXF 393): 66.4 µM (inactive)
- GI50 (NCI/ADR-RES): 5.36 µM (inactive)
- GI50 (Hs-578T): 39 µM (inactive)
- GI50 (A498): > 100 µM (inactive)
- GI50 (SW-620): 20.3 µM (inactive)
- GI50 (BT-549): 2.81 µM (inactive)
- GI50 (T47D): 25.9 µM (inactive)
- GI50 (CAKI-1): > 100 µM (inactive)
- GI50 (A549): > 100 µM (inactive)
- GI50 (SK-MEL-5): 25.1 µM (inactive)
- GI50 (UACC-62): 23.4 µM (inactive)
- GI50 (SF-268): 38.6 µM (inactive)
- GI50 (NCI-H226): 27.3 µM (inactive)
- GI50 (HOP-92): 16.7 µM (inactive)
- GI50 (NCI-H23): 23.3 µM (inactive)
- GI50 (MDA-MB-231): 2.04 µM (inactive)
- GI50 (OVCAR-3): 15 µM (inactive)
- GI50 (UACC-257): 15.3 µM (inactive)
- GI50 (SR): 7.48 µM (inactive)
- GI50 (SF-539): 43 µM (inactive)
- GI50 (MDA-MB-435): 34 µM (inactive)
- GI50 (HCT-15): 42.3 µM
- GI50 (NCI-H522): 16.1 µM (inactive)
- GI50 (OVCAR-4): 5.66 µM (inactive)
- GI50 (Malme-3M): 40.1 µM (inactive)
- GI50 (SF-295): 70.8 µM (inactive)
- GI50 (HT-29): > 100 µM (inactive)
- GI50 (U-251): 31.4 µM (inactive)
- GI50 (RPMI-8226): 4 µM (inactive)
- GI50 (UO-31): 18.2 µM (inactive)
- GI50 (HL-60): 7.73 µM (inactive)
- GI50 (KM12): > 100 µM (inactive)
- GI50 (OVCAR-5): 29.6 µM (inactive)
- GI50 (DU-145): > 100 µM (inactive)
- GI50 (K562): 15.5 µM (inactive)

Compound: c1ccc(/N=C(\N2CCCC2)N(CCN2CCCC2)c2ccccc2)cc1
- GI50 (MCF7): 13.5 µM (inactive)
- GI50 (HOP-62): 9.79 µM (inactive)
- GI50 (SK-OV-3): 63.4 µM (inactive)
- GI50 (NCI-H460): 10.3 µM (inactive)
- GI50 (PC-3): 5.5 µM (inactive)
- GI50 (SK-MEL-28): > 100 µM (inactive)
- GI50 (MOLT-4): 3.98 µM (inactive)
- GI50 (EKVX): 73.3 µM (inactive)
- GI50 (786-0): 43.2 µM (inactive)
- GI50 (COLO 205): 7.33 µM (inactive)
- GI50 (OVCAR-8): 24.4 µM (inactive)
- GI50 (SNB-75): 14.4 µM (inactive)
- GI50 (TK-10): 30.8 µM (inactive)
- GI50 (M14): 8.34 µM (inactive)
- GI50 (IGROV-1): 24.9 µM (inactive)
- GI50 (HCT-116): 1.83 µM (inactive)
- GI50 (SNB-19): > 100 µM (inactive)
- GI50 (SK-MEL-2): 64.9 µM (inactive)
- GI50 (ACHN): 40 µM (inactive)
- GI50 (LOX IMVI): 2.86 µM (inactive)
- GI50 (NCI/ADR-RES): 37 µM (inactive)
- GI50 (Hs-578T): 18.9 µM (inactive)
- GI50 (SW-620): 11.4 µM (inactive)
- GI50 (BT-549): 15.6 µM (inactive)
- GI50 (T47D): 28.8 µM (inactive)
- GI50 (CAKI-1): 53.5 µM (inactive)
- GI50 (A549): 56.6 µM (inactive)
- GI50 (SK-MEL-5): 12.2 µM (inactive)
- GI50 (UACC-62): 16.6 µM (inactive)
- GI50 (SF-268): > 10 µM (inactive)
- GI50 (NCI-H226): 23.7 µM (inactive)
- GI50 (HOP-92): 22.6 µM (inactive)
- GI50 (NCI-H23): 11.1 µM (inactive)
- GI50 (OVCAR-3): 20 µM (inactive)
- GI50 (UACC-257): 21 µM (inactive)
- GI50 (SR): 13.2 µM (inactive)
- GI50 (MDA-MB-435): 7.67 µM (inactive)
- GI50 (HCT-15): 22.1 µM
- GI50 (NCI-H522): 11.3 µM (inactive)
- GI50 (OVCAR-4): 32.1 µM (inactive)
- GI50 (SN12C): 29.8 µM (inactive)
- GI50 (Malme-3M): > 100 µM (inactive)
- GI50 (SF-295): 6.32 µM (inactive)
- GI50 (HT-29): 1.84 µM (inactive)
- GI50 (CCRF-CEM): 5.93 µM (inactive)
- GI50 (U-251): 29.9 µM (inactive)
- GI50 (RPMI-8226): 47.8 µM (inactive)
- GI50 (UO-31): 14.8 µM (inactive)
- GI50 (HL-60): 2.91 µM (inactive)
- GI50 (KM12): 11 µM (inactive)
- GI50 (OVCAR-5): 29.6 µM (inactive)
- GI50 (DU-145): > 10 µM (inactive)
- GI50 (K562): 3.8 µM (inactive)
